US20200089110A1, “SULFONIC ACID DERIVATIVE COMPOUNDS AS PHOTOACID GENERATORS IN RESIST APPLICATIONS” (Heraeus Precious Metals North America Daychem LLC, priority 2015, published 2020)

What was measured:
[1] = UV-Vis spectra of PAG compounds; format: physicochemical; conditions: for absorbance at i-line of a mercury lamp: compared with NIT (FIG. 4); for strong absorption band: 0.001% w/v (FIG. 4)
Method: FIG. 4 is a UV-Vis spectra of compounds NIT, D-1, and D-2 in PGMEA and D-4 in acetonitrile (0.001% w/v).
(§1) Photolysis of PAGs was carried out in acetonitrile in air at room temperature. The sodium salt of tetrabromophenol blue (TBPBNa), an acid indicator dye, which has a maximum absorption at 618 nm, was purchased from Aldrich (indicator grade) and used as received. Irradiation of the solution of the PAGs (3×10^−5 M) was performed using a Cole-Parmer UV 15 W bench lamp (EW-97605-50) at 365 nm. Light intensity was measured using an UV Power Puck II radiometer from EIT Inc. UV-Vis spectra were run on a Thermo Scientific Evolution 201 UV-visible spectrophotometer.

Solubility in PGMEA = format: physicochemical; conditions: in propylene glycol monomethyl ether acetate (PGMEA)
[2] = Photolysis of PAGs in acetonitrile under 365 nm irradiation (photoreactivity); format: physicochemical; conditions: for Solubility × Photoreactivity: product of solubility in PGMEA and relative photoreactivity at 365 nm
From the text: A photoresist composition typically comprises PAG, polymers, additives and solvents. The performance of a photoresist composition is mainly dependent on the properties of the PAG and polymer components. To formulate a high-performance photoresist composition, more photosensitive PAGs are typically selected. The photosensitivity of a PAG is typically directly related to the strength of the generated acid and the photoreactivity of the PAG. For a series of PAGs producing the same latent acid, their photosensitivity is related only to their photoreactivity. Thus evaluating the photosensitivity of a PAG can be achieved by studying its photoreactivity. The higher photoreactivity, the higher photosensitivity. The photoreactivity can be investigated by photolysis of a PAG in its dilute solution under low exposure intensity (to avoid side reactions which don't generate the desired acid). The change in the concentration of a PAG upon irradiation can be determined by measuring the absorbance of the PAG at the maximum absorption wavelength.
as §1
Photolysis of NIT, comparative compound A, D-1, and D-2 was examined in acetonitrile. The absorption band at 397 nm gradually decreases upon irradiation, indicating the progress of photoreaction with the increase of exposure dose of energy. Assuming the photoreaction is first-order, plot of natural log of changes in absorbance with exposure dose of energy gives the photoreaction constant of D-2 (i.e. the slope of the linear trendline) (FIG. 2). The photoreaction constants of other compounds were similarly determined under the same irradiation condition.
Comparing the constants of A, D-1, and D-2 with that of NIT normalized to one gives the relative photoreactivity (Table 7). The photoreactivity for PAG (e.g. D-2) according to the present disclosure is ˜8 times greater than that of NIT and ˜3 times greater than that of Comparative Compound A. The formation of acid upon irradiation was confirmed by observing the spectral changes of the acid indicator, TBPBNa at 618 nm.

SMILES	g-line absorbance ([1]; FIG. 4)	absorbance at i-line of a mercury lamp [1]	strong absorption band ([1]; in acetonitrile)	melting point	Solubility (w/w %) in PGMEA (Solubility in PGMEA)	Solubility × Photoreactivity [2]	strong absorption band ([1]; in PGMEA)	absorption band ([2]; in acetonitrile, band decreases upon irradiation (FIG. 1))
CC(C)(C)Oc1ccc(/C=C/c2ccc3c4c(cccc24)C(=O)N(OS(=O)(=O)C(F)(F)F)C3=O)cc1 [Compound D-4]	large	much larger than that of NIT	415 nm					
CC(C)(C)c1ccc(/C=C/c2ccc3c4c(cccc24)C(=O)N(OS(=O)(=O)C(F)(F)F)C3=O)cc1 [Compound D-3]				227 to 229 °C				
CCC(C)Oc1ccc(/C=C/c2ccc3c4c(cccc24)C(=O)N(OS(=O)(=O)C(F)(F)F)C3=O)cc1 (stereo not drawn)					4.3% w/w %	37.4%		
CCCCOC(=O)/C=C/c1ccc2c3c(cccc13)C(=O)N(OS(=O)(=O)C(F)(F)F)C2=O [Compound D-1]		much larger than that of NIT		151 to 152 °C	6.9% w/w %	12.4%	363 nm	
O=C1c2cccc3c(C#Cc4ccccc4)ccc(c23)C(=O)N1OS(=O)(=O)C(F)(F)F [Comparative Compound A, reference compound]					1.0% w/w %	2.5%		
O=C1c2cccc3cccc(c23)C(=O)N1OS(=O)(=O)C(F)(F)F [NIT, N-Hydroxynaphthalimide triflate, reference compound]					1.7% w/w %	1.7%		
O=C1c2cccc3c(/C=C/c4ccccc4)ccc(c23)C(=O)N1OS(=O)(=O)C(F)(F)F [Compound D-2]		much larger than that of NIT		182 to 184 °C	1.6% w/w %	13.1%	397 nm	397 nm
